What was measured:
A549 = assay: MTT antiproliferative assay, A549 cells; format: cell-based; settings: Homo sapiens, 48 h, MTT, read-out: Antiproliferative activity (growth inhibition, %); for inhibition at 2 µg/mL: A549, 2 μg/mL; for inhibition at 20 µg/mL: A549, 20 μg/mL
Procedure: (§1) All the cells were seeded in 96-well plates and incubated with 5% CO2 at 37 °C for 24 h. Next, the compounds and the reference were dissolved into the culture medium. The final concentration of DMSO in the medium was less than 0.5%. After the cells were treated with compounds for 48 h, the supernatant was removed and 5 mg/mL of a fresh prepared solution of MTT was added to each well and incubated with the cells at 37 °C for another 4 h. The medium was removed, and 100 μL of testing solution was added to each well. After an overnight incubation with 5% CO2 at 37 °C, the absorbance was measured at 490/630 nm by the microplate reader. The IC50 was calculated using GraphPad Prism version 6.0 software (San Diego, CA, USA) from the non-linear curve.

HT29 = assay: MTT antiproliferative assay, HT29 cells; format: cell-based; settings: Homo sapiens, HT-29, 48 h, MTT, read-out: Antiproliferative activity (growth inhibition, %); for inhibition at 2 µg/mL: HT29, 2 μg/mL; for inhibition at 20 µg/mL: HT29, 20 μg/mL
Procedure: as §1

| melting point [°C] | SMILES | inhibition at 2 µg/mL (A549) [%] | inhibition at 20 µg/mL (A549) [%] | inhibition at 2 µg/mL (HT29) [%] | inhibition at 20 µg/mL (HT29) [%] |
| --- | --- | --- | --- | --- | --- |
| 235.1 to 236.7 | CC1(C)C2CC[C@]3(C)[C@H](C(=O)C=C4[C@@H]5C[C@@](C)(C(=O)O)CC[C@]5(C)CC[C@]43C)[C@@]2(C)CC[C@@H]1OC(=O)Nc1ccc(Cl)cc1 (stereo partly drawn) [3d, 3β-(((4-chlorophenyl)carbamoyl)oxy)-11-oxo-olean-12-en-30-oic acid] | 9.93 | 55.4 | 13.7 | 56.2 |
| 270.7 to 271.6 | Cc1ccc(NC(=O)O[C@H]2CC[C@@]3(C)C(CC[C@]4(C)[C@@H]3C(=O)C=C3[C@@H]5C[C@@](C)(C(=O)O)CC[C@]5(C)CC[C@]34C)C2(C)C)cc1Cl (stereo partly drawn) [3f, 3β-(((3-chloro-4-methylphenyl)carbamoyl)oxy)-11-oxo-olean-12-en-30-oic acid] | 11.4 | 80.2 | 15.6 | 89.2 |
| 263 to 265 | CC1(C)C2CC[C@]3(C)[C@H](C(=O)C=C4[C@@H]5C[C@@](C)(C(=O)O)CC[C@]5(C)CC[C@]43C)[C@@]2(C)CC[C@@H]1OC(=O)Nc1ccc(Br)cc1 (stereo partly drawn) [3g, 3β-(((4-bromophenyl)carbamoyl)oxy)-11-oxo-olean-12-en-30-oic acid] | 9.72 | 63.4 | 18.6 | 76.5 |
| 267.9 to 268.9 | CC1(C)C2CC[C@]3(C)[C@H](C(=O)C=C4[C@@H]5C[C@@](C)(C(=O)O)CC[C@]5(C)CC[C@]43C)[C@@]2(C)CC[C@@H]1OC(=O)Nc1ccc(F)cc1 (stereo partly drawn) [3h, 3β-(((4-fluorophenyl)carbamoyl)oxy)-11-oxo-olean-12-en-30-oic acid] | 34.4 | 56.7 | 11.8 | 58.6 |
| 242.1 to 242.9 | CC1(C)C2CC[C@]3(C)[C@H](C(=O)C=C4[C@@H]5C[C@@](C)(C(=O)O)CC[C@]5(C)CC[C@]43C)[C@@]2(C)CC[C@@H]1OC(=O)Nc1ccc(C(F)(F)F)cc1 (stereo partly drawn) [3i, 3β-(((4-(trifluoromethyl)phenyl)carbamoyl)oxy)-11-oxo-olean-12-en-30-oic acid] | 15.9 | 87.5 | 19.4 | 90.1 |
| 259.5 to 261.1 | COc1cccc(NC(=O)O[C@H]2CC[C@@]3(C)C(CC[C@]4(C)[C@@H]3C(=O)C=C3[C@@H]5C[C@@](C)(C(=O)O)CC[C@]5(C)CC[C@]34C)C2(C)C)c1 (stereo partly drawn) [3l, 3β-(((3-methoxyphenyl)carbamoyl)oxy)-11-oxo-olean-12-en-30-oic acid] | 9.74 | 53.7 | 6.06 | 47.4 |
| 264 to 264.8 | COc1ccc(NC(=O)O[C@H]2CC[C@@]3(C)C(CC[C@]4(C)[C@@H]3C(=O)C=C3[C@@H]5C[C@@](C)(C(=O)O)CC[C@]5(C)CC[C@]34C)C2(C)C)cc1 (stereo partly drawn) [3m, 3β-(((4-methoxyphenyl)carbamoyl)oxy)-11-oxo-olean-12-en-30-oic acid] | 11.7 | 47.5 | 12.8 | 32.3 |
| 292.5 to 293 | CC1(C)C2CC[C@]3(C)[C@H](C(=O)C=C4[C@@H]5C[C@@](C)(C(=O)N6CCOCC6)CC[C@]5(C)CC[C@]43C)[C@@]2(C)CC[C@@H]1OC(=O)Nc1ccc(Cl)c(Cl)c1 (stereo partly drawn) [4a, 3β-(((3,4-dichlorophenyl)carbamoyl)oxy)-30-morpholino-olean-12-ene-11,30-dione] | 0 | 0 | 8.88 | 18.3 |
| 209.5 to 211.1 | CC1(C)C2CC[C@]3(C)[C@H](C(=O)C=C4[C@@H]5C[C@@](C)(C(=O)N6CCOCC6)CC[C@]5(C)CC[C@]43C)[C@@]2(C)CC[C@@H]1OC(=O)Nc1ccc(Cl)c(C(F)(F)F)c1 (stereo partly drawn) [4b, 3β-(((4-chloro-3-(trifluoromethyl)phenyl)carbamoyl)oxy)-30-morpholino-olean-12-ene-11,30-dione] | 0 | 0 | 14.4 | 32.8 |
| 278.2 to 280.3 | CC1(C)C2CC[C@]3(C)[C@H](C(=O)C=C4[C@@H]5C[C@@](C)(C(=O)N6CCOCC6)CC[C@]5(C)CC[C@]43C)[C@@]2(C)CC[C@@H]1OC(=O)Nc1cc(Cl)cc(Cl)c1 (stereo partly drawn) [4c, 3β-(((3,5-dichlorophenyl)carbamoyl)oxy)-30-morpholino-olean-12-ene-11,30-dione] | 0 | 0 | 7.41 | 2.76 |
| 298.4 to 299.7 | CC1(C(=O)N2CCOCC2)CCC2(C)CCC3(C)C(=CC(=O)C4C5(C)CCC(OC(=O)Nc6ccc(Cl)cc6)C(C)(C)C5CCC43C)C2C1 (stereo not drawn) [4d, 3β-(((4-chlorophenyl)carbamoyl)oxy)-30-morpholino-olean-12-ene-11,30-dione] | 0 | 54.4 | 16.3 | 53.7 |
| 291 to 292.5 | CC1(C)C2CC[C@]3(C)[C@H](C(=O)C=C4[C@@H]5C[C@@](C)(C(=O)N6CCOCC6)CC[C@]5(C)CC[C@]43C)[C@@]2(C)CC[C@@H]1OC(=O)Nc1cccc(Cl)c1 (stereo partly drawn) [4e, 3β-(((3-chlorophenyl)carbamoyl)oxy)-30-morpholino-olean-12-ene-11,30-dione] | 0 | 0 | 7.22 | 13.2 |
| 293.7 to 295.6 | Cc1ccc(NC(=O)O[C@H]2CC[C@@]3(C)C(CC[C@]4(C)[C@@H]3C(=O)C=C3[C@@H]5C[C@@](C)(C(=O)N6CCOCC6)CC[C@]5(C)CC[C@]34C)C2(C)C)cc1Cl (stereo partly drawn) [4f, 3β-(((3-chloro-4-methylphenyl)carbamoyl)oxy)-30-morpholino-olean-12-ene-11,30-dione] | 0 | 0 | 7.1 | 18.4 |
|  | CC1(C(=O)N2CCOCC2)CCC2(C)CCC3(C)C(=CC(=O)C4C5(C)CCC(OC(=O)Nc6ccc(Br)cc6)C(C)(C)C5CCC43C)C2C1 (stereo not drawn) [4g, 3β-(((4-bromophenyl)carbamoyl)oxy)-30-morpholino-olean-12-ene-11,30-dione] | 0 | 1.02 | 14.3 | 27.1 |
| 305.1 to 311.4 | CC1(C(=O)N2CCOCC2)CCC2(C)CCC3(C)C(=CC(=O)C4C5(C)CCC(OC(=O)Nc6ccc(F)cc6)C(C)(C)C5CCC43C)C2C1 (stereo not drawn) [4h, 3β-(((4-fluorophenyl)carbamoyl)oxy)-30-morpholino-olean-12-ene-11,30-dione] | 0 | 8.54 | 14.8 | 30.4 |
| 296.4 to 298 | CC1(C)C2CC[C@]3(C)[C@H](C(=O)C=C4[C@@H]5C[C@@](C)(C(=O)N6CCOCC6)CC[C@]5(C)CC[C@]43C)[C@@]2(C)CC[C@@H]1OC(=O)Nc1ccc(C(F)(F)F)cc1 (stereo partly drawn) [4i, 3β-(((4-(trifluoromethyl)phenyl)carbamoyl)oxy)-30-morpholino-olean-12-ene-11,30-dione] | 0 | 4.46 | 13.7 | 27.3 |
| 295 to 296.7 | CC1(C(=O)N2CCOCC2)CCC2(C)CCC3(C)C(=CC(=O)C4C5(C)CCC(OC(=O)Nc6cccc(C(F)(F)F)c6)C(C)(C)C5CCC43C)C2C1 (stereo not drawn) [4j, 3β-(((3-(trifluoromethyl)phenyl)carbamoyl)oxy)-30-morpholino-olean-12-ene-11,30-dione] | 0 | 0 | 20.3 | 36.4 |
| 313.4 to 314.7 | CC1(C)C2CC[C@]3(C)[C@H](C(=O)C=C4[C@@H]5C[C@@](C)(C(=O)N6CCOCC6)CC[C@]5(C)CC[C@]43C)[C@@]2(C)CC[C@@H]1OC(=O)Nc1cc(C(F)(F)F)cc(C(F)(F)F)c1 (stereo partly drawn) [4k, 3β-(((3,5-bis(trifluoromethyl)phenyl)carbamoyl)oxy)-30-morpholino-olean-12-ene-11,30-dione] | 4.47 | 0 | 13 | 14.9 |
| 305 to 306.8 | COc1cccc(NC(=O)O[C@H]2CC[C@@]3(C)C(CC[C@]4(C)[C@@H]3C(=O)C=C3[C@@H]5C[C@@](C)(C(=O)N6CCOCC6)CC[C@]5(C)CC[C@]34C)C2(C)C)c1 (stereo partly drawn) [4l, 3β-(((3-methoxyphenyl)carbamoyl)oxy)-30-morpholino-olean-12-ene-11,30-dione] | 0 | 0 | 13.6 | 16.6 |
| 305 to 306.7 | COc1ccc(NC(=O)O[C@H]2CC[C@@]3(C)C(CC[C@]4(C)[C@@H]3C(=O)C=C3[C@@H]5C[C@@](C)(C(=O)N6CCOCC6)CC[C@]5(C)CC[C@]34C)C2(C)C)cc1 (stereo partly drawn) [4m, 3β-(((4-methoxyphenyl)carbamoyl)oxy)-30-morpholino-olean-12-ene-11,30-dione] | 0 | 8.11 | 15.7 | 23.2 |
